The conditions of data set [1]: from U.S. Pat. No. 4,123,530; cited from earlier work.
Another data set deals with rat. Briefly: acute toxicity per os, rat. It is filed as in vivo. An excerpt: (§1) The acute toxicity of the complex salt of dihydroxy-aluminum-gluconate of N-cyclohexyl-piperazino acetamide is checked by the usual pharmacotoxicologic testing on the rat and mouse per os, the results of which are given in the following table.
In another data set the test system is mouse. Briefly: acute toxicity per os, mouse. Format: in vivo. Conditions: fiduciary limits (6646.4-5862.2).
Source text: as §1

The test system of a further data set is gastric hyperacidity. Briefly: buffering activity (neutralizing action for gastric hyperacidity). Conditions: rat, os. Format: in vivo.
The nature of a further data set: antisecretive activity. Format: in vivo. The settings on record: rat, os.
Data set [2] relates to Phenylbutazone + hystamine experimental ulcer. The data set can be described thus: antiulcer activity, phenylbutazone + hystamine ulcer. It is filed as in vivo. Conditions: rat, os. An excerpt: (§2) The antiulcer activity has been tested on the rat for different types of experimental ulcer. The obtained therefrom is in Table 2.
The subject of data set [3] is Reserpine experimental ulcer. The data set can be described thus: antiulcer activity, reserpine ulcer. Format: in vivo. Conditions: rat, os.
Source text: as §2

The test system of data set [4] is Immobilization experimental ulcer. The data set can be described thus: antiulcer activity, immobilization ulcer. Format: in vivo. Conditions: rat, os.
Source text: as §2

The subject of the next data set is Fast experimental ulcer. Briefly: antiulcer activity, fast ulcer. It is filed as in vivo. The settings on record: rat, os.
Source text: as §2

For a further data set, the system named is Shay experimental ulcer. Briefly: antiulcer activity, Shay ulcer. It is filed as in vivo. The settings on record: rat, i.d.
Source text: as §2

Data set [5] relates to Duodenal from cystamine experimental ulcer. The data set can be described thus: antiulcer activity, duodenal ulcer from cystamine. The settings on record: rat, i.d. It is filed as in vivo.
Source text: as §2

Data set [6] deals with From indomethacin experimental ulcer. Briefly: antiulcer activity, ulcer from indomethacin. Format: in vivo. The settings on record: rat, os.
Source text: as §2

The nature of data set [7]: buffering effect, HCl titration in vitro. Format: physicochemical. Conditions: 4.6 g sample in 400 ml 0.015 N HCl, 37° C., 0.1 N HCl at 1 ml/minute; minimum requirement. On the procedure:
Buffering effect: to 4.6 g of the sample, in a 1000 ml beaker, 400 ml of 0.015 N HCl are added, while keeping the temperature at 37° C. (thermostat). The pH is measured after 30 minutes, while controlling that it be maintained within 4.8.div.5.0. Then, by means of a burette, 0.1 N HCl is introduced at a rate of 1 ml/minute, to achieve a pH of 3.0. 165 ml of 0.1N HCl must be consumed at the very least.

As for `CC1CCC(NC(=O)CN2CCNCC2)CC1` (stereo not drawn) [N-4-methyl-cyclohexyl-1-piperazinylacetamide], the “antisecretive and antiulcer activity” value in [1] is “considerable”.
Take `O=C(CN1CCNCC1)NC1CCCCC1` [N-cyclohexyl-1-piperaziniylacetamide]: the “antisecretive and antiulcer activity” value in [1] was “considerable”.
As to “Dihydroxy-aluminate-gluconate of N- cyclohexyl-1-piperazino-acetamide”, the toxicity entry in the data set on rat (rat and mouse per os, overall statement) is recorded as “very low”. Further, the LD50 in the data set on rat (rat, os, fiduciary limits (8447.4-5264.6)) was 6668.4 mg/kg; with mouse, 6241.9 mg/kg. The “ED50 (buffering activity)” value in the data set with gastric hyperacidity was 156 mg/kg. For the same compound, the “ED50 (antisecretive activity)” value in “antisecretive activity” was 330 mg/kg. Moreover, the “ED50 (antiulcer)” value was determined as 150 mg/kg in data set [2]; 480 mg/kg in [3]; 420 mg/kg in [4]; 350 mg/kg with Fast experimental ulcer; 360 mg/kg with Shay experimental ulcer; 270 mg/kg in data set [5]. The “ED50 (antiulcer)” value in data set [6] is given as 420 mg/kg. The “0.1N HCl consumed to achieve a pH of 3.0” value in data set [7] is on record as not below 165 ml.

The values above are taken from US4495186A, “Organometal complexes of N-cyclohexyl-piperazino acetamides or propionamides, preparation and use thereof as antiulcer-antisecretive-buffering drugs” (Camillo Corvi S.p.A., priority 1982, dated 1985).
